Consider five compounds from ChEMBL document CHEMBL1158699, “Bioactive benzophenones from Garcinia xanthochymus fruits” (J Nat Prod, 2005).

What is called IC50 is the concentration needed to halve the response being measured.

Activity calls are given as the source filed them. The calls are words filed in the database; no cut-off is given here. Where only a bound is given, the exact number is not on record here.

Experiment [1] concerns Radical scavenging activity. Kind of experiment: Antioxidant activity assessed as DPPH radical scavenging activity. It is filed as functional. For orientation: DPPH is a stable violet radical that fades when it is reduced.
A further experiment relates to SW480. Kind of experiment: Cytotoxicity against human SW480 cells after 72 hrs by MTT assay. The following applies: SW480, 72 h. It is filed as functional, cell-based.

As for `COc1cc2c(=O)c3c(O)cc(O)cc3oc2cc1O` [ALLOATHYRIOL], the outcome in experiment [1] was inactive. The compound further returned an IC50 in the experiment with SW480 of 117 µM.

For the compound `O=C1c2c(O)cc(O)cc2OC(c2ccc(O)cc2)C1c1c(O[C@@H]2O[C@H](CO)[C@@H](O)[C@H](O)[C@H]2O)cc(O)c2c(=O)cc(-c3ccc(O)c(O)c3)oc12` (mixture of isomers), the figures for the IC50 (in experiment [1]; with SW480) were 116 µM and more than 200 µM, respectively.

For the compound `O=c1c(-c2c(O)cc(O)c3c(=O)cc(-c4ccc(O)cc4)oc23)c(-c2ccc(O)cc2)oc2cc(O)cc(O)c12`, the figures for the IC50 (in experiment [1]; in the experiment with SW480) were more than 400 µM and 185 µM, respectively.

As to `O=c1cc(-c2ccc(O)c(-c3c(O)cc(O)c4c(=O)cc(-c5ccc(O)cc5)oc34)c2)oc2cc(O)cc(O)c12` [AMENTOFLAVONE], the IC50 in experiment [1] was 184 µM; in the experiment on SW480, 111 µM.

Regarding `O=C1c2c(O)cc(O)cc2OC(c2ccc(O)cc2)C1c1c(O)cc(O)c2c(=O)cc(-c3ccc(O)c(O)c3)oc12` (racemic), the results for the IC50 (in experiment [1]; in the experiment with SW480) were 62 µM and 89 µM, respectively.
